Consider 40 compounds from PubChem BioAssay (NCI).

The structures appear in SMILES notation.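 Assay format: 96-well plates, 48-hour exposure. The concentration for 50% growth inhibition is given as GI50. TGI is the concentration that stops growth completely.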

What all share (assay): NCI tumour cell line growth inhibition, 48 h
The subject of assay [1] is RXF-631 renal.
Assay [2] has as its system XF 498 CNS.
Assay [3] relates to M19-MEL melanoma.
The test system of assay [4] is DMS 273 small cell lung.
Assay [5] deals with HOP-18 NSCLC.
The subject of assay [6] is SNB-78 CNS.
The subject of assay [7] is DLD-1 colon.
Assay [8] deals with DMS 114 small cell lung.
Assay [9] deals with MDA-N.
In assay [10] the test system is P388/ADR leukemia.
In assay [11] the test system is P388 leukemia.
For assay [12], the system named is SN12K1 renal.

In the case of `N#Cc1cccnc1Cl`, the TGI in assay [1], in assay [2], in [3], in assay [4], in assay [5] and in [6] was over 100 µM each time. Further, the TGI in [7] and in assay [8] was over 100 µM each time.
As to `O=C(NCO)NCOCn1c(=O)n(CO)c(=O)n(CO)c1=O`, the TGI in [1] was over 100 µM; in assay [2], 55.5 µM; in assay [3], over 66.3 µM; in [5], over 100 µM; in assay [6] it was over 73.9 µM; in assay [7], 64.4 µM. In assay [8], the TGI was 99.3 µM.
In the case of `Clc1ccc2c(c1)-c1c3c(nn1-c1ccccc1)-c1ccccc1SC3O2` (centres undefined), the TGI in [2], in [3], in assay [4], in [5], in [6] and in assay [8] was over 100 µM throughout.
Take `CN(C)c1cc[c]([Sn]([c]2ccc(N(C)C)cc2)([c]2ccc(N(C)C)cc2)[c]2ccc(N(C)C)cc2)cc1`: the GI50 is 5.17 µM in assay [3]; 4.76 µM in assay [4]; 8.77 µM in assay [5]; 3.82 µM in assay [6]; 3.15 µM in assay [8]. Moreover, the TGI in [3] was determined as 24.4 µM; in [4] it was 16.4 µM; in assay [5] it was 32.9 µM; in assay [6], 11.5 µM; in assay [8], 13.8 µM.
With `COc1cc(NC(C)CCCN)c2nccc(C)c2c1` (centres undefined), the TGI in assay [9] worked out at 33.7 µM.
Regarding `CCCSc1nc(COC(=O)NC)c(COC(=O)NC)n1C`, the TGI was 61.8 µM in [10]; over 100 µM in assay [2]; over 100 µM in assay [3]; over 100 µM in assay [4]; over 100 µM in [5]; over 100 µM in assay [6]. Besides, the TGI in assay [7] is over 100 µM; in assay [11], 54.8 µM; in assay [8], over 100 µM; in assay [12], over 100 µM.
`Cc1c(C(=O)/C=C/c2ccccc2)[n+](=O)c2ccccc2n1[O-]`: the TGI is 24.6 µM in assay [2]; 30 µM in assay [3]; 30.1 µM in assay [4]; 57 µM in [5]; over 100 µM in assay [6]; 27.5 µM in assay [7]. This compound also yielded a TGI in assay [8] of 22.2 µM.
In the case of `C=CC/C=C/C/C=C/CCCCCCCc1cccc(O)c1C(=O)O`, the TGI is over 100 µM in assay [1]; over 100 µM in assay [2]; over 100 µM in [3]; over 100 µM in assay [4]; 65.3 µM in [5]; over 100 µM in [6]. The TGI in assay [7] and in assay [8] was over 100 µM each time.
With `O=C1[C@@H]2C(c3ccccc3F)=NO[C@@H]2C(=O)N1c1ccc(Cc2ccc(N3C(=O)[C@H]4C(c5ccccc5F)=NO[C@H]4C3=O)cc2)cc1`, the TGI in [1], in assay [2], in [3], in [4], in [5] and in [6] was over 100 µM in each case. For the same compound, the TGI in [7] and in assay [8] was over 100 µM throughout.
Take `COc1ccc(CC2NCCc3cc(OC)c(OC)cc32)cc1Br` (centres undefined): the TGI in assay [2] is 47 µM; in assay [9] it was over 100 µM; in assay [3], 41.5 µM; in [4] it was 57.5 µM; in [5], over 100 µM; in [6] it was over 100 µM. In addition, the TGI in assay [7] was over 100 µM; in [8] it was 52.9 µM.
As to `ClCC[N+]12CC[N+](CCCl)(CC1)C2`, the TGI in assay [9] was over 100 µM.
As for `c1ccc(C2Nc3ccccc3C3OCCCC23)cc1` (centres undefined), the TGI in assay [1] is over 100 µM; in [2], over 100 µM; in assay [3], over 100 µM; in assay [4], 97.1 µM; in assay [6], over 100 µM; in [7] it was over 100 µM. The same compound registered a TGI in assay [8] of 62.4 µM.
In the case of `COc1c(CCl)cc(-c2cc(=O)c3ccccc3s2)cc1CCl`, the TGI in [9] is over 100 µM.
For the compound `CSC(C1c2ccccc2N(c2ccc(C)cc2)c2[nH]c(=O)n(C)c(=O)c21)S(=O)(=O)c1ccc(C)cc1` (centres undefined), the TGI in assay [2], in assay [3], in assay [4], in assay [6], in assay [7] and in [8] was over 100 µM each time.
`CCn1c(-c2ccc(OC(C)=O)cc2)c(C)c2cc(OC(C)=O)ccc21` yielded a TGI in assay [9] of 77.9 µM.
On to `C1C[OH+]CC[OH+]CC[OH+]CC[OH+]CC[OH+]1.[Cl-].[V]`, for which the GI50 in assay [4] is 53 µM; in assay [5], 60.6 µM; in [7], over 100 µM; in assay [8], over 100 µM. Also, the TGI in assay [4], in assay [5], in assay [7] and in assay [8] was over 100 µM each time.
Take `Nc1nc(F)nc2c1ncn2C1OC(CO)C(O)C1O` (centres undefined): the TGI in [9] is over 100 µM.
Consider `O=C(Nc1c(Cl)cc([N+](=O)[O-])cc1Cl)C(=O)C(C1OC(=O)c2ccccc21)[N+](=O)[O-]` (centres undefined), for which the TGI in assay [1], in assay [2], in assay [3], in assay [6], in [7] and in assay [8] was over 100 µM throughout.
For `Nc1ccn(C2CCC(CO)O2)c(=O)n1` (centres undefined), the TGI in assay [9] was over 1000 µM; in assay [6] it was over 81.9 µM.
Turning to `COc1cc(/C=C(\C#N)c2ccccc2)cc(OC)c1`, the TGI in [2], in assay [3], in assay [6], in [7] and in assay [8] was over 100 µM in each case.
The compound `CC1=C(O)C(=O)C=C2C1=CC=C1[C@@]2(C)CC[C@@]2(C)[C@@H]3C[C@](C)(C(=O)O)CC[C@]3(C)CC[C@]12C` gave a TGI in assay [9] of 0.075 µM.
On to `O=C1OC2CCCC[C@@H]2C2C[C@]34CCCCC3[C@@H](C(=O)O4)C12` (some centres undefined), for which the TGI in assay [2], in [3], in assay [5], in assay [6], in assay [7] and in assay [8] was over 100 µM in each case.
With `C/C(CC(=O)NCCc1ccccc1)=N\NC(=O)C[n+]1ccccc1`, the TGI in assay [1], in assay [2], in assay [3], in assay [4], in [6] and in assay [7] was over 100 µM throughout. This compound also registered a TGI in assay [8] of over 100 µM.
The compound `COc1ccc(/C=C/c2cc(OC)cc(=O)o2)cc1` had a TGI in assay [9] of over 100 µM.
The compound `Clc1ccc(C=Nc2ccc3c(c2)Cc2ccccc2-3)c(Cl)c1` returned a TGI in [9] of over 100 µM.
For `CCN(CC)c1ccc(N=Nc2ccc(-c3nc4ccc[n+](C)c4s3)cc2)cc1`, the TGI is 10.6 µM in assay [3], 13.5 µM in [4], 31.3 µM in [5] and 31.6 µM in assay [6].
Regarding `Br[C](Br)(Br)[Hg][c]1ccccc1`, in [9], the GI50 was 17.6 µM and the TGI amounted to 38.7 µM.
For `COc1ccc(OC)c2c(C(=O)O)c(Cc3ccccc3)ccc12`, the TGI in assay [2], in [3], in assay [4], in [5], in [7] and in assay [8] was over 100 µM in each case.
For the compound `CCOC(=O)NC(=O)c1cn(CCCOC(=O)CCCCCCCCCCC(=O)OCCCn2cc(C(=O)NC(=O)OCC)c(=O)[nH]c2=O)c(=O)[nH]c1=O`, the TGI in [1], in assay [2], in assay [3], in assay [5], in assay [6] and in assay [7] was over 100 µM throughout.
As for `C[C@]12CC[C@@H]3c4cc(OCC(F)(F)F)c(O)cc4/C(=N/O)C[C@H]3[C@@H]1CC[C@@H]2O`, the TGI in [9] is 1.06 µM.
Consider `S=C1OC2CCCC[C@H]2O1` (some centres undefined), for which the TGI in assay [1], in assay [2], in [3], in assay [4], in assay [5] and in assay [6] was over 100 µM each time. The TGI in assay [7] and in assay [8] was over 100 µM each time.
`CC1=CC(C/C(C)=C/COc2ccc3ccc(=O)oc3c2)OC1=O` (centres undefined): in assay [9], the TGI is over 100 µM.
`Cn1c2ccccc2c(=O)c2ccc(Cl)cc21`: the TGI in [9] is over 10 µM.
Still for that read-out and setting: the figure for `C=C1CCC(CC[C@@H]2CC[C@]3(OC2)O[C@@]2(O)CC[C@]3(C)OC2(C)C)C(C)(C)[C@H]1C/C=C1/C(=O)OC[C@@H]1O` (some centres undefined) is 4.36 µM.
On to `CCCCCCCCCCCC(=O)OCC1OC(OC)C(NC(=O)N(CCCl)N=O)C(O)C1O` (centres undefined), for which the TGI is 27.6 µM in [2]; over 100 µM in [3]; 30.6 µM in assay [4]; over 100 µM in assay [5]; 52.3 µM in assay [7]; 39 µM in assay [8].
`O=C1CC2CCCC23CC2(CCN13)OCCO2` (centres undefined): the TGI in assay [1], in assay [2], in assay [3], in assay [4], in assay [5] and in assay [6] was over 100 µM each time. The TGI in assay [7] and in [8] was over 100 µM in each case.
The compound `O=C1CC2c3ccccc3CCC2c2ccccc21` (centres undefined) showed a TGI in assay [9] of 21.4 µM.
`N#CC1CC2(C1)OCCS2` (centres undefined): the TGI in [4], in [6] and in assay [7] was over 100 µM throughout.
Turning to `C=C1C(=O)OC2/C=C(\COC(C)=O)CCC(OC(C)=O)C3=CC(OC3=O)C12` (centres undefined), the TGI in assay [1] was 48 µM; in [2], 5.33 µM; in assay [4] it was 21.7 µM; in assay [6] it was 9.55 µM; in assay [7], 9.92 µM; in assay [8], 3.18 µM.
For `CC(C)(C)c1cc(C(O)(C(F)(F)F)C(F)(F)F)c2c(c1)C(C(F)(F)F)(C(F)(F)F)OC(C(C)(C)C)N2` (centres undefined), the TGI in assay [1] was 19 µM; in [2] it was 1.84 µM; in [3], 12.9 µM; in [4], 11.1 µM; in [5], 9.34 µM; in [6], 14.2 µM. In addition, the TGI in assay [7] stood at 16.5 µM; in assay [8], 8.95 µM.
